Source: paper PMC11821258 (Molecules, 2025)

Columns and labels:
[1] = system: human biphenotypic B myelomonocytic leukemia MV4-11; assay: Antiproliferative activity, MTT assay, 72 h; format: cell-based; conditions: for IC50: Homo sapiens, MV4-11, 72 h, MTT, read-out: IC50; for SI: IC50 MCF-10A / IC50 MV4-11
Description: (§1) The tested compounds were dissolved in DMSO (dimethyl sulfoxide) to a concentration of 10 mg/mL and then were diluted in the culture medium to reach the final concentrations. The cells were plated in 384-well plates at a density of 1 × 10^3 or 2 × 10^3 (MCF-10A) cells per well (Greiner Bio One, Kremsmünster, Austria) and in 96-well plates (MV4-11 cell; Sarstedt, Nümbrecht, Germany) at a density of 5 × 10^3 cells per well. After 24 h of incubation, the tested compounds were added at concentrations in the range of 100–0.03 µg/mL and, after the next 72 h of exposure to tested agents, the cytotoxic effect of all agents was examined using the MTT (MV4-11) or SRB assay, described previously. The values of IC50 (inhibitory concentration 50%) were calculated separately for each experiment (repeated 3–5 times) using the Prolab-3 system which is based on Cheburator 0.4 software. Doxorubicin was applied as a reference drug. The IC50 values in µg/mL were calculated to µM.
This assay was used against MV4-11 leukemia cells and was performed after 72 h of exposure of the tested agents to the cells. For each well, 20 µL of the MTT [3-(4,5-dimethylthiazol-2-yl)-2,5-diphenyl tetrazolium bromide] solution (5 mg/mL, Merck, Darmstadt, Germany) was added. After the incubation time (4 h at 37 °C), 80 µL of the lysing buffer was added to each well (mixture of 225 mL of DMF (dimethylformamide) Avantor, Poland; 67.5 g of SDS, Merck, Darmstadt, Germany; and 275 mL of distilled water). After the next 24 h, the absorbance of the samples was measured at a 570 nm wavelength on a Synergy H4 photometer (BioTek Instruments, Winooski, VT, USA). The absorbance of wells without the cells was the background.

[2] = system: MV4-11 cells; assay: Cell cycle analysis by flow cytometry (propidium iodide); format: cell-based, human; conditions: for number of death cells / number of cells in the G2/M and S phases: MV4-11, 72 h; for number of death cells: about 1.5 × IC50
Description: After incubation, the cells were collected and counted with a hemocytometer, and the 5×10^5 cells were washed twice in cold PBS (phosphate-buffered saline) and fixed for 24 h in 70% ethanol at −20 °C. Then, the cells were washed twice in PBS and incubated with 0.5 mL of RNAse (8 μg/mL, Thermo Fisher, Waltham, MA, USA) at 37 °C for 1 h. The cells were stained for 30 min with propidium iodide (final concentration: 50 μg/mL, Merck, Darmstadt, Germany) at 4 °C and the cellular DNA content was analyzed by conducting flow cytometry using a BD LSRFortessa cytometer (BD Bioscience, San Jose, CA, USA). Compounds at each concentration were tested at least three times independently. The obtained results were analyzed using Flowing software 2.5.1 (Cell Imaging Core, Turku Centre for Biotechnology, University of Turku and Åbo Akademi University, Finland).

[3] = system: human normal epithelial cells from the mammary gland (MCF-10A); assay: Cytotoxicity on non-tumorigenic cells, SRB assay, 72 h; format: cell-based; conditions: Homo sapiens, MCF-10A normal cells, SRB, read-out: IC50
Description: as §1
(§2) The cytotoxicity assay was performed after the cultured cells were exposed to the tested agents for 72 h using the authomatic Washer dyspenser EL406, BioTek. At the first step, the washer dispenser collected 40 µL of cultured medium from each wells, and then the cells were fixed by gently layering 20 µL per well of cold 25% trichloroacetic acid to each well. The incubation time was 40 min and then the plates were washed with tap water. The cells were stained with 20 µL per well of 0.1% sulforhodamine B (SRB, Merck, Darmstadt, Germany) for 30 min. Unbound sulforhodamine B was removed by washing it with 1% acetic acid. The protein-bound dye was extracted in 30 min using 70 µL per well of 10 mM unbuffered Tris base (Merck, Darmstadt, Germany). The absorbance (at 540 nm) was measured on a Synergy H4 photometer (BioTek Instruments, Winooski, VT, USA). The absorbance of the wells without the cells was the background.

[4] = system: human melanoma Hs294T cells; assay: Antiproliferative activity, SRB assay, 72 h; format: cell-based; conditions: for IC50: Homo sapiens, Hs 294T, Hs249T (so in the source), 72 h, SRB, read-out: IC50; for SI: IC50 MCF-10A / IC50 Hs249T (so in the source)
Description: as §1, §2

[5] = system: human pancreas cancer MiaPaca-2 cells; assay: Antiproliferative activity, SRB assay, 72 h; format: cell-based; conditions: for IC50: Homo sapiens, MIA PaCa-2, MiaPaca-1 (so in the source), 72 h, SRB, read-out: IC50; for SI: IC50 MCF-10A / IC50 MiaPaca-1 (so in the source)
Description: as §1, §2

[6] = system: human colon cancer HCT116 cells; assay: Antiproliferative activity, SRB assay, 72 h; format: cell-based; conditions: for IC50: Homo sapiens, HCT-116, HCT116, 72 h, SRB, read-out: IC50; for SI: IC50 MCF-10A / IC50 HCT116
Description: as §1, §2

[7] = system: human breast cancer MCF-7; assay: Antiproliferative activity, SRB assay, 72 h; format: cell-based; conditions: for IC50: Homo sapiens, MCF7, MCF-7, 72 h, SRB, read-out: IC50; for SI: IC50 MCF-10A / IC50 MCF-7
Description: as §1, §2

[8] = system: human prostate adenocarcinoma PC-3; assay: Antiproliferative activity, SRB assay, 72 h; format: cell-based; conditions: for IC50: Homo sapiens, PC-3, 72 h, SRB, read-out: IC50; for SI: IC50 MCF-10A / IC50 PC-3
Description: as §1, §2

[9] = system: human lung carcinoma A549; assay: Antiproliferative activity, SRB assay, 72 h; format: cell-based; conditions: for IC50: Homo sapiens, A549, 72 h, SRB, read-out: IC50; for SI: IC50 MCF-10A / IC50 A549
Description: as §1, §2

[10] = system: MV4-11 cells; assay: Apoptosis determination via Annexin V and PI staining; format: cell-based, human; conditions: MV4-11, 72 h; for induction of apoptosis: higher concentrations
Description: Camptothecin at a concentration of 0.05 uM was used as a positive control. After incubation, the cells were collected and counted with a hemocytometer, and 1×10^5 cells were washed twice with PBS. APC-Annexin V (Becton Dickinson, Pharmingen, Franklin Lakes, NJ, USA) was dissolved to the concentration of […] in a binding buffer (10 mM HEPES/NaOH, pH 7.4; 150 mM NaCl; 5 mM KCl; 1 mM MgCl2; and 1.8 mM CaCl2) (HIIET, Wrocław, Poland), and the cells were suspended in 200 µL of this solution. After 15 min of the incubation in the dark at room temperature, 20 µL of propidium iodide (PI) solution (0.02 mg/mL) was added. Data acquisition was performed by conducting flow cytometry using a BD LSRFortessa cytometer (BD Bioscience, San Jose, CA, USA). The compounds were tested at least three times independently. Results were analyzed using Flowing software 2.5.1 (Turku, Finland). […] Double-negative cells were live cells, PI+/Annexin V+ were late apoptotic cells, PI-/Annexin V+ were early apoptotic cells, and PI+/Annexin V- were necrotic cells.

[11] = about 1.5 × IC50, statistically significant

Row | SMILES | IC50 [1] [µM] | SI [1] | number of cells in the G2/M phase ([2]; MV4-11, 24 h, about 1.5 × IC50, statistically significant) | number of death cells [2] | number of cells in the G2/M and S phases [2, 11] | IC50 [3] [µM] | IC50 [4] [µM] | SI [4] | IC50 [5] [µM] | SI [5] | IC50 [6] [µM] | SI [6] | IC50 [7] [µM] | SI [7] | IC50 [8] [µM] | SI [8] | IC50 [9] [µM] | SI [9] | number of necrotic cells [10] | induction of apoptosis [10]
1 | C#CCCC(=O)OC[C@]12CC[C@@H](C(=C)C)C1C1CCC3[C@@]4(C)CC[C@H](OC(=O)CC(C)(C)C(=O)O)C(C)(C)C4CC[C@@]3(C)[C@]1(C)CC2 (some centres unmarked) [Compound 5b] | 4.76 ± 0.92 | 7.10 | lowered | increased | decreased | 33.8 ± 3.38 | 16.1 ± 4.76 | 2.10 | 28.4 ± 3.23 | 1.19 | 9.06 ± 2.92 | 3.73 | 12.3 ± 2.92 | 2.75 | 21.1 ± 1.54 | 1.61 | 4.15 ± 0.92 | 8.15 | increased the number of necrotic cells | induction of apoptosis was observed
2 | C=C(C)[C@@H]1CC[C@]2(CO)CC[C@]3(C)C(CCC4[C@@]5(C)CC[C@H](OC(=O)CCC(=O)O)C(C)(C)C5CC[C@]43C)C12 (some centres unmarked) [Compound 6] | 6.45 ± 2.03 | 4.94 | – | – | – | 31.9 ± 4.24 | 32.1 ± 1.66 | 0.99 | 38.1 ± 3.87 | 0.84 | 20.3 ± 5.53 | 1.57 | 19 ± 6.45 | 1.68 | 26.2 ± 5.71 | 1.22 | 8.66 ± 1.1 | 3.68 | – | induction of apoptosis was observed
3 | C#CC(=O)OC[C@]12CC[C@@H](C(=C)C)C1C1CCC3[C@@]4(C)CC[C@H](OC(=O)CCC(=O)O)C(C)(C)C4CC[C@@]3(C)[C@]1(C)CC2 (some centres unmarked) [Compound 6a] | 2.57 ± 1.01 | – | – | increased | decreased | 49.4 ± 17.8 | 3.53 ± 0.67 | 14 | 18.5 ± 9.75 | 2.67 | 20.7 ± 9.08 | 2.39 | 16 ± 1.01 | 3.09 | 0.41 ± 0.08 | 121 | 12.9 ± 0.67 | 3.82 | – | induction of apoptosis was observed
4 | C#CCCC(=O)OC[C@]12CC[C@@H](C(=C)C)C1C1CCC3[C@@]4(C)CC[C@H](OC(=O)CCC(=O)O)C(C)(C)C4CC[C@@]3(C)[C@]1(C)CC2 (some centres unmarked) [Compound 6b] | 3.53 ± 0.64 | 8.68 | – | – | – | 30.7 ± 3.69 | 17.5 ± 6.26 | 1.75 | 27.4 ± 2.57 | 1.12 | 9.95 ± 0.64 | 3.08 | 11.4 ± 4.17 | 2.69 | 13.2 ± 2.57 | 2.33 | 3.21 ± 0.64 | 9.55 | – | –
